Patent US9309242B2, “Substituted pyrido[2,3-b]pyrazines as FGFR kinase inhibitors” (priority 2011, dated 2016)

Columns and labels:
FGFR1 (h) = FGFR1 (h) (Homo sapiens, UniProt P11362); experiment: FGFR1 (enzymatic assay), TR-FRET; type: biochemical; conditions: read-out: FGFR 1 pIC50 (converted)
FGFR3 (h) = FGFR3 (h) (Homo sapiens, UniProt P22607); experiment: FGFR3 (enzymatic assay), TR-FRET; type: biochemical; conditions: read-out: FGFR 3 pIC50 (converted)
Text: Time-Resolved Fluorescence Resonance Energy Transfer (TR-FRET) signal (ex340 nm.

FGFR4 (h) = FGFR4 (h) (Homo sapiens, UniProt P22455); experiment: FGFR4 (enzymatic assay), TR-FRET; type: biochemical; conditions: FGFR 4 pIC50, enzymatic assay
[1] = biological target: T1, Ba/F3-FGFR1-transfected cells (Homo sapiens, UniProt P11362); experiment: Ba/F3-FGFR1 (minus IL3) cellular proliferation assay, Alamar Blue; type: cell-based
T1 construct: BAF3-FGFR1 (MIN IL3) pIC50; other: minus IL3
Method in brief: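 Viability of transfected Ba/F3-FGFR1 cells (20000 per well, RPMI-1640 with 10% FBS and 2 mM L-glutamine) was scored by resazurin-based Alamar Blue reduction over 4 h, after 24 h treatment with compound at 37 °C under 5% CO2.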

[2] = biological target: T2, Ba/F3-FGFR3-transfected cells (Homo sapiens, UniProt P22607); experiment: Ba/F3-FGFR3 (minus IL3) cellular proliferation assay, Alamar Blue; type: cell-based
T2 construct: BAF3-FGFR3 (MIN IL3) pIC50; other: minus IL3
Method in brief: (§1)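 With or without 10 ng/ml murine IL3, FGFR3-dependent Ba/F3 cells were treated 24 h with compound, then viability was gauged by Alamar Blue fluorescence after 4 h (ex 540/em 590 nm).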

[3] = tested on: Ba/F3-FGFR3-transfected cells; experiment: Ba/F3-FGFR3 (plus IL3) cellular proliferation assay, counterscreen with 10 ng/ml murine IL3; type: cell-based; conditions: plus IL3 (10 ng/ml murine IL3, counterscreen); read-out: BAF3-FGFR3 (PLUS IL3) pIC50 (converted)
Method in brief: as §1

[4] = biological target: T3, Ba/F3-KDR-transfected cells (Homo sapiens, UniProt P35968); experiment: Ba/F3-KDR (minus IL3) cellular proliferation assay, Alamar Blue; type: cell-based
T3 construct: BAF3-KDR (MIN IL3) pIC50; other: minus IL3
Method in brief: (§2)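 Ba/F3-KDR-transfected cells, 20000 per well in phenol red free RPMI-1640 with 10% FBS, exposed to compound 24 hours at 37° C, 5% CO2; Alamar Blue then added for 4 hours and fluorescence read (ex. 540 nm, em. 590 nm). Plus-IL3 counterscreen run identically with 10 ng/ml murine IL3.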

[5] = tested on: Ba/F3-KDR-transfected cells; experiment: Ba/F3-KDR (plus IL3) cellular proliferation assay, counterscreen with 10 ng/ml murine IL3; type: cell-based; conditions: plus IL3 (10 ng/ml murine IL3, counterscreen); read-out: BAF3-KDR (PLUS IL3) pIC50 (converted)
Method in brief: as §2

[6] = biological target: Ba/F3-FGFR4-transfected cells (Homo sapiens, UniProt P22455); experiment: Ba/F3-FGFR4 cellular proliferation assay, Alamar Blue; type: cell-based
Method in brief: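 Ba/F3-FGFR4 cells (20000/well) in phenol red-free RPMI-1640 with 10% FBS are exposed to compound for 24 h at 37 °C, 5% CO2. Alamar Blue (resazurin) is then added for 4 h and fluorescence read at ex 540/em 590 nm.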

Sequence of FGFR4 (h) (P22455 22-802): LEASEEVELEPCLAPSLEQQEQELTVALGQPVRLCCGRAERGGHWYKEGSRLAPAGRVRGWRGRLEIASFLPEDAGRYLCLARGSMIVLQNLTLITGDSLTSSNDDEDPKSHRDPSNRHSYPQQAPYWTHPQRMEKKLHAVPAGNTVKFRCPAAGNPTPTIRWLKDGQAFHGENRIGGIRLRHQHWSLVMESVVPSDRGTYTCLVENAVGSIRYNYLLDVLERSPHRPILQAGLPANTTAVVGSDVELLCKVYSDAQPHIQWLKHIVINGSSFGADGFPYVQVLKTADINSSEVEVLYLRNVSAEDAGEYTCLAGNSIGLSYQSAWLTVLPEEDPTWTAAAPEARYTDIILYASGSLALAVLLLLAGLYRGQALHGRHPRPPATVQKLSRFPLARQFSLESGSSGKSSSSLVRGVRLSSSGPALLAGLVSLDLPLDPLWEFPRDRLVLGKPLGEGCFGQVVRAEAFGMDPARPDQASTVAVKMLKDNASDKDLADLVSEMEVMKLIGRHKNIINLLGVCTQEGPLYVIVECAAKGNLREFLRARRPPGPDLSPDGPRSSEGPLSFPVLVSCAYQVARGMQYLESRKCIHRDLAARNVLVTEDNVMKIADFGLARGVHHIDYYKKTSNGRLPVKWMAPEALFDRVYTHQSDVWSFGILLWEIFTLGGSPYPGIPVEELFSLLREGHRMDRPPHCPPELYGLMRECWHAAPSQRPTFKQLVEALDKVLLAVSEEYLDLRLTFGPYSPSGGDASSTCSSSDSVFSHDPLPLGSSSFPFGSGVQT
T3 sequence (P35968 whole entry, change not shown): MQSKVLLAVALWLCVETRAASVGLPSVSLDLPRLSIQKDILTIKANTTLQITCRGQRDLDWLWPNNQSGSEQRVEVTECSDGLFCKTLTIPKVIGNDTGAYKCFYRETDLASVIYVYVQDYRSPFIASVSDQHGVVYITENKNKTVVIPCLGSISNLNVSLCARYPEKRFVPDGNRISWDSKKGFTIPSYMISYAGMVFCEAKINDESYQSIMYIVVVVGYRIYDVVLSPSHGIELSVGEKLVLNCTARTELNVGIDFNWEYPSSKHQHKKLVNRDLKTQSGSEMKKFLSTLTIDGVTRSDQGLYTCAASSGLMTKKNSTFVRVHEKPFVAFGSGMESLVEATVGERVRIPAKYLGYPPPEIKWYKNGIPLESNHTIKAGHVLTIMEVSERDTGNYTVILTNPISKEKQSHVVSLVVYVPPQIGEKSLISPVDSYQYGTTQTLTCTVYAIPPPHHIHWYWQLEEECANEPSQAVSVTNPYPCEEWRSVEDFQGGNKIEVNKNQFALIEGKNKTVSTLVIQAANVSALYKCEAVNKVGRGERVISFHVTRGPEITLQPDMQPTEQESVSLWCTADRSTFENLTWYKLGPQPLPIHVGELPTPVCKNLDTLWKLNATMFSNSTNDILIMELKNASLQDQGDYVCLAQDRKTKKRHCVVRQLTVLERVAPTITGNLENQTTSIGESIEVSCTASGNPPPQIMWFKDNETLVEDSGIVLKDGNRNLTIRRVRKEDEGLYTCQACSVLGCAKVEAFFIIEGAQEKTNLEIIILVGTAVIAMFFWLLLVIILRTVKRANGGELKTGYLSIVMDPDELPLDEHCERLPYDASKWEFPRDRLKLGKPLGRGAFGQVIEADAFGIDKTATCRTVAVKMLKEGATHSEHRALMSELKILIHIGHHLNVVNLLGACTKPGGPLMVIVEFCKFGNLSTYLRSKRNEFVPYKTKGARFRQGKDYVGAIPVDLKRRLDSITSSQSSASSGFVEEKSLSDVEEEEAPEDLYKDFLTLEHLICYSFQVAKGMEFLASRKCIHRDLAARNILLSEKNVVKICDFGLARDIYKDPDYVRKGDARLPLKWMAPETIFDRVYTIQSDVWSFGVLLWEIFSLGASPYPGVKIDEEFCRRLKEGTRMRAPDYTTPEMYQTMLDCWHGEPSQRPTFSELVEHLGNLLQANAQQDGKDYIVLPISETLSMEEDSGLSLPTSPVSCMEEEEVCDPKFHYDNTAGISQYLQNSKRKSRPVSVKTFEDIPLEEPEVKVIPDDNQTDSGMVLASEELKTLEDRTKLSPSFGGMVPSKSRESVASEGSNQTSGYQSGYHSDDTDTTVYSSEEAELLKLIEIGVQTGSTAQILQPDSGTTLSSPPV
T1 sequence (P11362 whole entry, change not shown): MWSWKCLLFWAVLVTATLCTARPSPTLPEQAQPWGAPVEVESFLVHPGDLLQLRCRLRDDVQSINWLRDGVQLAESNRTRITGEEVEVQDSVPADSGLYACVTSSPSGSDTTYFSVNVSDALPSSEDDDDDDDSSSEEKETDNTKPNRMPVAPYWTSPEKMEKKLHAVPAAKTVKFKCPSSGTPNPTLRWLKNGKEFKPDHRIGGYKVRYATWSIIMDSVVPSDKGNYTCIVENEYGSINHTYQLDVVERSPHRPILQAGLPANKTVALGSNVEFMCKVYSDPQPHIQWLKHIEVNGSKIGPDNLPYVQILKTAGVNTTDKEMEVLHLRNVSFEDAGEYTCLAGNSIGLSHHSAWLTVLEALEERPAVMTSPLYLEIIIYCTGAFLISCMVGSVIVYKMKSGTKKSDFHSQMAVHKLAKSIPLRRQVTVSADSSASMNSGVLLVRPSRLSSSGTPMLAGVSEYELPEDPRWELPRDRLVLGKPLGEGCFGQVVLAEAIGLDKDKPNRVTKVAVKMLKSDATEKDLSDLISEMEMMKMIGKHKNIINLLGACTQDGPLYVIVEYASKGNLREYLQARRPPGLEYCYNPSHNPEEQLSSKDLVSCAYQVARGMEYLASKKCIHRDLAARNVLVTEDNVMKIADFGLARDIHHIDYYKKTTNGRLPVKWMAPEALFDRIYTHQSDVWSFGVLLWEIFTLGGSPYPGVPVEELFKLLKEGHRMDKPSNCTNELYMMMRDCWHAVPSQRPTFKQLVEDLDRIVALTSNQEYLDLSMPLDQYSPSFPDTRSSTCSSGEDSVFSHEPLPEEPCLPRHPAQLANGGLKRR
T2 sequence (P22607 whole entry, change not shown): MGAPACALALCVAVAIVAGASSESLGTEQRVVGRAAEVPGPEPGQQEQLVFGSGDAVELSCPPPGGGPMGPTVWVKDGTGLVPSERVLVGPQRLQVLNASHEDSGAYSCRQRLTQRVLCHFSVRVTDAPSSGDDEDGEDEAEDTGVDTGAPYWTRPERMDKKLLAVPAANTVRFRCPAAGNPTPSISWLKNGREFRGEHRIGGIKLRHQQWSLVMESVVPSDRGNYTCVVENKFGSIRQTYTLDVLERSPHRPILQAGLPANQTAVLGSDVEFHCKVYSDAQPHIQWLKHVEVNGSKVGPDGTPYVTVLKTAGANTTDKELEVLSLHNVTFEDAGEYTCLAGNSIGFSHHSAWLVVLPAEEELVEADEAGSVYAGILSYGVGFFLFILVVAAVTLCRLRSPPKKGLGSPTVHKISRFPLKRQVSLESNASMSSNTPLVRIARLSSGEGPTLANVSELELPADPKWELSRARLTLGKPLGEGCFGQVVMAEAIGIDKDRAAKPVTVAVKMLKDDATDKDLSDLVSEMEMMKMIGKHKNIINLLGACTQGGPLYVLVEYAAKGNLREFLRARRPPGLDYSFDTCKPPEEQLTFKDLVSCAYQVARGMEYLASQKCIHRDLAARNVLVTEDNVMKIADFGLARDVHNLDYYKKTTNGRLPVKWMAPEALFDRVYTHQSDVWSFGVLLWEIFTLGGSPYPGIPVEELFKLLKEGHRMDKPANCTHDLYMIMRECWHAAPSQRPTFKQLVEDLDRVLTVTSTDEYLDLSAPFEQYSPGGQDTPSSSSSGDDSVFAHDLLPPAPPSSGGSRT
Sequence of Ba/F3-FGFR4-transfected cells (P22455 whole entry, change not shown): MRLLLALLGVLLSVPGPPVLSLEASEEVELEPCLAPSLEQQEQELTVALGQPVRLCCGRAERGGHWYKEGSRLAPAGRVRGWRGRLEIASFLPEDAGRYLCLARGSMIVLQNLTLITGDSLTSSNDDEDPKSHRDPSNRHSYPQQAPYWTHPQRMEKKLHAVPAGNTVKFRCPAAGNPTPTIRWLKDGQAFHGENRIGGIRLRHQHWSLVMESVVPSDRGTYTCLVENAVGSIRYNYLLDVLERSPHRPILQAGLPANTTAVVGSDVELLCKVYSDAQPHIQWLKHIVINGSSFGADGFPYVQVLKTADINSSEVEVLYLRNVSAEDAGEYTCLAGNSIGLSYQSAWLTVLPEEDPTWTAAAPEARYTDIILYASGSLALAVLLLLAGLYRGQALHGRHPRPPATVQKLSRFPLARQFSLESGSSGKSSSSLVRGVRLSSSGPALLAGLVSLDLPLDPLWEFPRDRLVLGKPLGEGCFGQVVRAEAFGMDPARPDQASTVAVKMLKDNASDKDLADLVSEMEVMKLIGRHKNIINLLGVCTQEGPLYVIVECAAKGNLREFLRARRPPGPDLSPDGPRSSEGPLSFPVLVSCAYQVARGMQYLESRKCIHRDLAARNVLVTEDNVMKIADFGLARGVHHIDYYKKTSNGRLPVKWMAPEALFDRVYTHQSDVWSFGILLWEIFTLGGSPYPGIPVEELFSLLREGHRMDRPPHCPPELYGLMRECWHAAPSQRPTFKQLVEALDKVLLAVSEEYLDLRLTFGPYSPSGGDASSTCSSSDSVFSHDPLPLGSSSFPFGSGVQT

| Compound | IC50 (FGFR1 (h)) | IC50 (FGFR3 (h)) | IC50 (FGFR4 (h)) | BAF3-FGFR1 (MIN IL3) pIC50 [1] | BAF3-FGFR3 (MIN IL3) pIC50 [2] | IC50 [3] | BAF3-KDR (MIN IL3) pIC50 [4] | IC50 [5] | BAF3-FGFR4 pIC50 [6] |
| --- | --- | --- | --- | --- | --- | --- | --- | --- | --- |
| COc1cc(OC)c(F)c(N(Cc2cc(C)on2)c2ccc3ncc(-c4cnn(C)c4)nc3n2)c1 [Compound 180] | 1.1 nM | 1.07 nM | 1.66 nM | 7.43 | 7.36 | > 10000 nM | 5.58 | > 10000 nM | 7.10 |
| COc1cc(/N=c2\ccc3ncc(-c4cnn(C)c4)nc3n2Cc2cc(C)on2)c(F)c(OC)c1 [Compound 181] | 1.51 nM | 1.55 nM | 1.05 nM | 7.76 | 8.05 | > 10000 nM | 5.97 | > 10000 nM | 7.55 |
| COc1cc(OC)cc(N(Cc2ncc[nH]2)c2ccc3ncc(-c4cccnc4)nc3n2)c1 [Compound 182] | 1.7 nM | 1.15 nM | 2.34 nM | 7.60 | ~7.76 | > 10000 nM | 5.48 | > 10000 nM | 7.17 |
| COc1cc(/N=c2\ccc3ncc(-c4cnn(C)c4)nc3n2Cc2cc(C)no2)c(F)c(OC)c1 [Compound 184] | 0.977 nM | 1.35 nM | 1.17 nM | ~8.34 | ~8.15 | > 10000 nM | 6.71 | > 10000 nM | 8.03 |
| COc1cc(OC)c(F)c(N(Cc2cc(C)no2)c2ccc3ncc(-c4cnn(C)c4)nc3n2)c1 [Compound 185] | 0.851 nM | 0.912 nM | 0.977 nM | 7.59 | 7.64 | > 10000 nM | 5.51 | > 10000 nM | 7.39 |
| COc1cc(OC)cc(N(Cc2noc(C)n2)c2ccc3ncc(-c4cnn(C)c4)nc3n2)c1 [Compound 186] | 2.45 nM | 2.69 nM | 12 nM | 7.03 | ~7.11 | > 10000 nM | 5.20 | > 10000 nM | 6.36 |
| COc1cc(OC)cc(N(Cc2nnc(N)o2)c2ccc3ncc(-c4cnn(C)c4)nc3n2)c1 [Compound 188] | 1.66 nM | 0.933 nM | 1.62 nM | 6.78 | ~7.15 | > 10000 nM | 5.63 | > 10000 nM | 6.62 |
| COc1cc(OC)c(F)c(N(Cc2ncc[nH]2)c2ccc3ncc(-c4cn[nH]c4)nc3n2)c1 [Compound 190] | 0.617 nM | 1.23 nM | 1.12 nM | 8.19 | ~8.15 | > 10000 nM | 6.46 | > 10000 nM | 8.08 |
| COc1cc(OC)c(F)c(N(Cc2ncc[nH]2)c2ccc3ncc(-c4cccnc4)nc3n2)c1 [Compound 190a] | 1.02 nM | 2 nM | 2.95 nM | 7.94 | 7.72 | > 10000 nM | 5.82 | > 10000 nM | 7.11 |
| COc1cc(OC)c(F)c(N(CC2CCC(=O)N2CCO)c2ccc3ncc(-c4cnn(C)c4)nc3n2)c1 (stereo not drawn) [Compound 194] | 11.2 nM | 8.51 nM | 44.7 nM | 6.30 | 6.16 | > 10000 nM | 5.18 | > 10000 nM | 5.50 |
| COc1cc(OC)c(F)c(N(Cc2cnn(C)c2)c2ccc3ncc(-c4cnn(C)c4)nc3n2)c1 [Compound 195] | 0.589 nM | 0.871 nM | 0.871 nM | 8.08 | 8.09 | > 10000 nM | 5.79 | > 10000 nM | 7.33 |
| COc1cc(/N=c2\ccc3ncc(-c4cnn(C)c4)nc3n2Cc2cnn(C)c2)c(F)c(OC)c1 [Compound 196] | 0.407 nM | 0.912 nM | ~0.891 nM | 8.95 | ~8.66 | > 10000 nM | 7.41 | > 10000 nM | ~8.62 |
| COc1cc(OC)cc(N(Cc2nn[nH]n2)c2ccc3ncc(-c4cnn(C)c4)nc3n2)c1 [Compound 197] | 22.4 nM | 14.5 nM | 34.7 nM | <5 | <5 | > 10000 nM | <5 | > 10000 nM | <5 |
| COc1cc(OC)cc(N(Cc2ncc[nH]2)c2ccc3ncc(-c4ccn(C)c4)nc3n2)c1 [Compound 198] | 0.309 nM | 0.646 nM | 0.661 nM | 8.48 | ~8.15 | > 10000 nM | 6.68 | > 10000 nM | 8.05 |
| COc1cc(OC)c(F)c(N(Cc2ncc[nH]2)c2ccc3ncc(-c4ccccc4)nc3n2)c1 [Compound 200] | 0.537 nM | 1.45 nM | 1.48 nM | 8.37 | ~8.13 | > 10000 nM | 5.99 | > 10000 nM | 7.33 |
| COc1cc(OC)cc(N(Cc2ncc[nH]2)c2ccc3ncc(-c4ccncc4)nc3n2)c1 [Compound 202] | 1.12 nM | 1.62 nM | 2.82 nM | 7.47 | ~7.67 | > 10000 nM | 5.24 | > 10000 nM | 6.81 |
| COc1cc(OC)cc(N(Cc2nncn2CCO)c2ccc3ncc(-c4cnn(C)c4)nc3n2)c1 [Compound 204] | 11.2 nM | 15.1 nM | 60.3 nM | 6.15 | 6.09 | > 10000 nM | <5 | > 10000 nM | 5.49 |
| COc1cc(OC)cc(N(Cc2ncn(CCO)n2)c2ccc3ncc(-c4cnn(C)c4)nc3n2)c1 [Compound 205] | 3.89 nM | 14.5 nM | 47.9 nM | 6.31 | 6.20 | > 10000 nM | 5.45 | > 10000 nM | 5.62 |
| CCOCc1c[nH]c(CN(c2ccc3ncc(-c4cnn(C)c4)nc3n2)c2cc(OC)cc(OC)c2F)n1 [Compound 206] | 1.38 nM | 2.51 nM | 2.95 nM | 7.89 | ~8.12 | > 10000 nM | 5.84 | > 10000 nM | 7.34 |
| COc1cc(OC)c(F)c(N(Cc2ncc[nH]2)c2ccc3ncc(-c4cnn(C(CO)CCl)c4)nc3n2)c1 (stereo not drawn) [Compound 209] | 0.776 nM | 1.32 nM | 1.12 nM | 8.71 | 8.25 | > 10000 nM | 6.57 | > 10000 nM | 7.92 |
| COc1cc(OC)c(F)c(N(Cc2ncc[nH]2)c2ccc3ncc(-c4ccncc4)nc3n2)c1 [Compound 211] | 1 nM | 1.51 nM | 2.29 nM | 8.08 | ~8.11 | > 10000 nM | 5.82 | > 10000 nM | 7.29 |
